These results are taken from patent US20230373985A1 (Origenis Gmbh, priority 2020, published 2023).

The target of test [1] is T1, wt human TYK2, catalytic site (Homo sapiens, UniProt P29597).
T1 construct: wt human TYK2, catalytic site; purchased SignalChem
T1 sequence (P29597 897-1176 limits assumed): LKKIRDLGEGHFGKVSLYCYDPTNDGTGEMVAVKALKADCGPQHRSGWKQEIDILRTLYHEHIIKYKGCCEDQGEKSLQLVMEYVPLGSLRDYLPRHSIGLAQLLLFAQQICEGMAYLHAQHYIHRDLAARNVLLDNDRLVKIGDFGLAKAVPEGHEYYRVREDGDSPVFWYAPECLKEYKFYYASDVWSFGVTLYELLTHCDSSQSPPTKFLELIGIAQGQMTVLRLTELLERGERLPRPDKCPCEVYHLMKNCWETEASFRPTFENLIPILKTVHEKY
Briefly: HTRF KinEASE assay, TYK2. The format is biochemical. The conditions noted are these: 1 μM ATP; read-out: IC50, Activity Toward TYK2. The essentials: (§1)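 Kinase reaction run at room temperature for at least 30 min: 2 nM TYK2 with 1 μM ATP, or 1 nM JAK2 with 100 μM ATP, each with 1 μM biotin-TK substrate. Phosphorylation detected by HTRF (60 min antibody/XL665) and evaluated from emission ratios.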

The target of test [2] is T2, wt human LRRK2, catalytic site (Homo sapiens, UniProt Q5S007).
T2 construct: 5 nM wt human LRRK2, catalytic site; purchased ThermoFisher
The experiment in a line: TR-FRET LanthaScreen Eu Kinase Binding Assay, LRRK2 wt. The note with it: one range stated for wt and G2019, read-out: IC50, Activity Toward LRRK2(Wt). The method in brief:
(§2)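 Kinase Buffer A holding, as final levels, 8 nM full-length NUAK1, 2 nM Eu-anti-His antibody and 5 nM Tracer 236, or 5 nM LRRK2 catalytic site (wt or G2019S), 2 nM Eu-anti-GST and 10 nM Tracer 236. Compound added, then 1 h at room temperature before TR-FRET ratio readout.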

Test [3] deals with T3, wt human JAK1, catalytic site (Homo sapiens, UniProt P23458).
T3 construct: wt human JAK1, catalytic site; purchased ThermoFisher
The experiment in a line: HTRF KinEASE assay, JAK1. The format is biochemical. The conditions noted are these: 2.5 μM ATP; read-out: IC50, Activity Toward JAK1. The essentials: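 Compounds in DMSO dilution were mixed with kinase, biotin-TK substrate and ATP and reacted for ≥30 min at room temperature. Detection reagents (antibody, streptavidin-XL665) were read 60 min later as HTRF, with emission ratios analysed per KinEASE protocol.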

The target of test [4] is T4, wt human JAK2, catalytic site (Homo sapiens, UniProt O60674).
T4 construct: wt human JAK2, catalytic site; purchased SignalChem
Briefly: HTRF KinEASE assay, JAK2. The format is biochemical. The note with it: assay format not given (Z'-LYTE or HTRF KinEASE); read-out: IC50, Activity Toward JAK2. The method in brief:
as §1

The target of test [5] is T5, G2019S human LRRK2, catalytic site (Homo sapiens, UniProt Q5S007, G2019S).
T5 construct: G2019S human LRRK2, catalytic site; purchased ThermoFisher
The experiment in a line: TR-FRET LanthaScreen Eu Kinase Binding Assay, LRRK2 G2019S. The note with it: LRRK2(G2019); one range stated for wt and G2019; read-out: IC50, Activity Toward LRRK2(G2019). The method in brief:
as §2

In test [6] the target is T6, wt human NUAK1, full length (Homo sapiens, UniProt O60285).
T6 construct: 8 nM wt human NUAK1, full length (ThermoFisher/USA); purchased ThermoFisher
T6 sequence (O60285 1-661): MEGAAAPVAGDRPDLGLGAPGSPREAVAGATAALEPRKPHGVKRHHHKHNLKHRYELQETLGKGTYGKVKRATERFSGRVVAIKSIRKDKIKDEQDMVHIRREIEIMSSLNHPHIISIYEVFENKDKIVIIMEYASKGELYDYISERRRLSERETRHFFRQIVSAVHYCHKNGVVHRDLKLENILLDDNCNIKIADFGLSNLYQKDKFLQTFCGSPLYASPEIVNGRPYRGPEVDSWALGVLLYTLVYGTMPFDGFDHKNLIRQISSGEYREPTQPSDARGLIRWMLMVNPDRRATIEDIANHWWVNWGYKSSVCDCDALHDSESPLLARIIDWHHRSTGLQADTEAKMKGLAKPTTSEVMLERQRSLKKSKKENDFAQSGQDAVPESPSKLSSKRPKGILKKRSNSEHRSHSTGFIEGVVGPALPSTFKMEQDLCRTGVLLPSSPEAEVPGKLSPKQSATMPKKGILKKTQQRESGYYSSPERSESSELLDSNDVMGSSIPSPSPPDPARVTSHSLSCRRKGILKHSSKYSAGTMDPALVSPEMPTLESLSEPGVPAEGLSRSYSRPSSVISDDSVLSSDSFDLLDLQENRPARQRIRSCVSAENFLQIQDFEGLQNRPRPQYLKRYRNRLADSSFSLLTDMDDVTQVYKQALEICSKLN
Briefly: TR-FRET LanthaScreen Eu Kinase Binding Assay, NUAK1. The note with it: read-out: IC50, Activity Toward NUAK1. The method in brief: as §2

T2 sequence (Q5S007 970-2527 limits assumed): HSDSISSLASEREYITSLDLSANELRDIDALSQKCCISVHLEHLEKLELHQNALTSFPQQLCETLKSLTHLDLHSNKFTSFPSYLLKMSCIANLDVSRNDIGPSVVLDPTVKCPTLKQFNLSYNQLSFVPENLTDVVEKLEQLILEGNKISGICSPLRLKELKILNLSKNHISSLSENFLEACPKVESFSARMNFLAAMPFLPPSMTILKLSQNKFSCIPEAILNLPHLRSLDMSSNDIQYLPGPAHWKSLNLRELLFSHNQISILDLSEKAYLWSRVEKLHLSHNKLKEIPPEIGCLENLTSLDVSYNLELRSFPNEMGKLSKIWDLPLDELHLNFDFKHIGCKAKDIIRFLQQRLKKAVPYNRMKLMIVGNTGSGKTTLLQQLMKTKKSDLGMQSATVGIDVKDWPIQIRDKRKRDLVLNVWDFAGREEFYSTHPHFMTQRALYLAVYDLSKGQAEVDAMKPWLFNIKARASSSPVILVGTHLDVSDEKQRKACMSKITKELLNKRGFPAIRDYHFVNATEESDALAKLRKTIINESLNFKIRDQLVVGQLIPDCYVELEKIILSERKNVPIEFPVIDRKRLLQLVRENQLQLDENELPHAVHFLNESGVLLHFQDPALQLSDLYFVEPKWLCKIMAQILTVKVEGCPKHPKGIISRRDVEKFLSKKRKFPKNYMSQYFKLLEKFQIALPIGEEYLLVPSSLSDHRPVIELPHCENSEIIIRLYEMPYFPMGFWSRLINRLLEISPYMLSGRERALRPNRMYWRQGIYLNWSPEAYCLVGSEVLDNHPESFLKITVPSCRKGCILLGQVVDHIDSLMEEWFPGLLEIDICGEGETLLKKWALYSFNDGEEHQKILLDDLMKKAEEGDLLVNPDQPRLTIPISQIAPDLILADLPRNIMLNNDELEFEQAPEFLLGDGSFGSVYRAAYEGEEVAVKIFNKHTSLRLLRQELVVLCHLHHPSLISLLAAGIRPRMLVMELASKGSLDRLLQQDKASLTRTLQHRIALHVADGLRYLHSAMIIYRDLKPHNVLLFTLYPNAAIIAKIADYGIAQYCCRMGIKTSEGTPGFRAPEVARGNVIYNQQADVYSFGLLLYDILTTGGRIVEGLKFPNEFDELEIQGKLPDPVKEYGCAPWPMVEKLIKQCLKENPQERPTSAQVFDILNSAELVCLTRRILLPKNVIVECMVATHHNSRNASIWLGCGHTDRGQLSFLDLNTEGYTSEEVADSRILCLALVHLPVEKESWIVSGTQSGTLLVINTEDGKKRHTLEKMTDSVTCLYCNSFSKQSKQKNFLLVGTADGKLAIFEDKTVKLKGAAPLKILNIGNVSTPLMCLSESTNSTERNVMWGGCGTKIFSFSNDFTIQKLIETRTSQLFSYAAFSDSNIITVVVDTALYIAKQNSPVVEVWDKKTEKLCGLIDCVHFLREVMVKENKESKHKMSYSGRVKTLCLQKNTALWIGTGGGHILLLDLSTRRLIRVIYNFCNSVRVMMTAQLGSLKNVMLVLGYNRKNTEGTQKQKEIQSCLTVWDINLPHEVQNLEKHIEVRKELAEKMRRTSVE
T4 sequence (O60674 849-1124 limits assumed): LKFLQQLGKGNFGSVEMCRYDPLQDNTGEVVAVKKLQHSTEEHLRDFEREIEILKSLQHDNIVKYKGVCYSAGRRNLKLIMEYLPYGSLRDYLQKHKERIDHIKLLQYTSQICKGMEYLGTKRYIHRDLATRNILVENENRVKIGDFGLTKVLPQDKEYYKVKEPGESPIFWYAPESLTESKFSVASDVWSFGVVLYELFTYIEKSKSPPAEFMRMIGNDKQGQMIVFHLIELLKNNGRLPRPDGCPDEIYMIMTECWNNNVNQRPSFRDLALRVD
T3 sequence (P23458 875-1153 limits assumed): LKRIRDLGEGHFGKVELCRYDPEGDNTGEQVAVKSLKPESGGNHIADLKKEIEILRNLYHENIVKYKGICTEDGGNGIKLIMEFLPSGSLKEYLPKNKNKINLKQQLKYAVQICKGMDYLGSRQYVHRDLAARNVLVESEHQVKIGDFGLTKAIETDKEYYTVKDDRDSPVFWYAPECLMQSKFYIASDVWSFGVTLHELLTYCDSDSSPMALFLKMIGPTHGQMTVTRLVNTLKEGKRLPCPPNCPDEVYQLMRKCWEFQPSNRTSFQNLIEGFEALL
T5 sequence (Q5S007 970-2527 G2019S limits assumed): as the sequence (Q5S007 970-2527 limits assumed) above, with G1050S counted along it

For `NC(=O)c1nn(-c2c(Cl)cccc2Cl)cc1Nc1ccc(-c2nncn2C2CC2)cc1` [compound 206, 4-((4-(4-cyclopropyl-4H-1,2,4-triazol-3-yl)phenyl)amino)-1-(2,6-dichlorophenyl)-1H-pyrazole-3-carboxamide], the IC50 in test [1] fell in the range of 10 to 100 nM; in test [2], 100 to 1000 nM; in test [3] it was 10 to 100 nM; in test [4] it was 100 to 1000 nM; in test [5] it was 100 to 1000 nM; in test [6], 100 to 1000 nM.
Turning to `CCn1cnnc1-c1ccc(Nc2cn(-c3c(F)cccc3Cl)nc2C(N)=O)cc1` [compound 207, 1-(2-chloro-6-fluorophenyl)-4-((4-(4-ethyl-4H-1,2,4-triazol-3-yl)phenyl)amino)-1H-pyrazole-3-carboxamide], the IC50 was below 10 nM in test [1]; 100 to 1000 nM in test [2]; 10 to 100 nM in test [3]; 100 to 1000 nM in test [4]; 100 to 1000 nM in test [5]; 100 to 1000 nM in test [6].
For the compound `CC(C)n1ncnc1-c1ccc(Nc2cn(-c3c(F)cccc3Cl)nc2C(N)=O)cc1` [compound 211, 1-(2-chloro-6-fluorophenyl)-4-((4-(1-isopropyl-1H-1,2,4-triazol-5-yl)phenyl)amino)-1H-pyrazole-3-carboxamide], the IC50 fell in the range of 10 to 100 nM in test [1]; 10 to 100 nM in test [2]; 100 to 1000 nM in test [3]; 100 to 1000 nM in test [4]; 10 to 100 nM in test [5]; 100 to 1000 nM in test [6].
As to `NC(=O)c1nn(-c2c(Cl)cccc2Cl)cc1Nc1ccc(-c2nncn2CC(F)F)cc1` [compound 212, 1-(2,6-dichlorophenyl)-4-((4-(4-(2,2-difluoroethyl)-4H-1,2,4-triazol-3-yl)phenyl)amino)-1H-pyrazole-3-carboxamide], the IC50 in test [1] was below 10 nM; in test [2], 100 to 1000 nM; in test [3], 10 to 100 nM; in test [4], 100 to 1000 nM; in test [5], 100 to 1000 nM; in test [6], 100 to 1000 nM.
As for `NC(=O)c1nn(-c2c(F)cccc2Cl)cc1Nc1ccc(C(=O)N2CCCC2)cc1` [compound 227, 1-(2-chloro-6-fluorophenyl)-4-((4-(pyrrolidine-1-carbonyl)phenyl)amino)-1H-pyrazole-3-carboxamide], the 50% inhibitory concentration (IC50) is below 10 nM in test [1]; 100 to 1000 nM in test [2]; 10 to 100 nM in test [3]; 100 to 1000 nM in test [4]; 100 to 1000 nM in test [5]; 10 to 100 nM in test [6].
`CCn1ccnc1-c1ccc(Nc2cn(-c3c(Cl)cccc3Cl)nc2C(N)=O)cc1` [compound 229, 1-(2,6-dichlorophenyl)-4-((4-(1-ethyl-1H-imidazol-2-yl)phenyl)amino)-1H-pyrazole-3-carboxamide]: the IC50 in test [1] is 10 to 100 nM; in test [2], 100 to 1000 nM; in test [3], below 10 nM; in test [4], 100 to 1000 nM; in test [5], 100 to 1000 nM; in test [6], 100 to 1000 nM.
With `NC(=O)c1nn(-c2c(Cl)cccc2Cl)cc1Nc1ccc(-c2nnc3ccccn23)cc1` [compound 333, 4-((4-([1,2,4]triazolo[4,3-a]pyridin-3-yl)phenyl)amino)-1-(2,6-dichlorophenyl)-1H-pyrazole-3-carboxamide], the IC50 in test [1] was below 10 nM; in test [2] it was 100 to 1000 nM; in test [3], 10 to 100 nM; in test [4] it was 100 to 1000 nM; in test [5], 100 to 1000 nM; in test [6], 100 to 1000 nM.
As to `NC(=O)c1nn(-c2c(Cl)ccc(F)c2Cl)cc1Nc1ccc(C(=O)N2CCOCC2)cc1` [compound 416, 1-(2,6-dichloro-3-fluorophenyl)-4-((4-(morpholine-4-carbonyl)phenyl)amino)-1H-pyrazole-3-carboxamide], the concentration for half-maximal inhibition (IC50) in test [1] is below 10 nM; in test [2], 100 to 1000 nM; in test [3], 10 to 100 nM; in test [4], 100 to 1000 nM; in test [5], 100 to 1000 nM; in test [6], 100 to 1000 nM.
On to `N#Cc1cccc(F)c1-n1cc(Nc2ccc(C(=O)N3CCS(=O)(=O)CC3)cc2)c(C(N)=O)n1` [compound 452, 1-(2-cyano-6-fluorophenyl)-4-((4-(1,1-dioxidothiomorpholine-4-carbonyl)phenyl)amino)-1H-pyrazole-3-carboxamide], for which the IC50 in test [1] was below 10 nM; in test [2] it was 100 to 1000 nM; in test [3] it was below 10 nM; in test [4] it was 100 to 1000 nM; in test [5], 100 to 1000 nM; in test [6], 100 to 1000 nM.
For the compound `N#Cc1cccc(F)c1-n1cc(Nc2ccc(C(=O)N3CCOCC3)cc2)c(C(N)=O)n1` [compound 454, 1-(2-cyano-6-fluorophenyl)-4-((4-(morpholine-4-carbonyl)phenyl)amino)-1H-pyrazole-3-carboxamide], the IC50 in test [1] is below 10 nM; in test [2], 100 to 1000 nM; in test [3], 10 to 100 nM; in test [4] it was 100 to 1000 nM; in test [5], 100 to 1000 nM; in test [6], 100 to 1000 nM.
